# “Also recorded” adds a separate entry of the source.
# Legend:
# Assay type in all cases: cell-based
# A549 = test: WST-1 proliferation assay, A549; details: Homo sapiens; Lung A549; read-out: Anti-proliferative activity IC50 (μM) ± SD
# Description: (§1) All the cancer cell lines were maintained in cultured in DMEM GlutaMAX™ (GIBCO Invitrogen, France, cat no 31966047) enhanced with 10% foetal bovine serum (GIBCO Invitrogen, France, cat no 10270-106) and 1% penicillin G/streptomycin (GIBCO Invitrogen, France, cat no 15140-122). Only Panc-10.5 cells were cultivated in RPMI 1640 medium (Gibco) supplemented with 2 mM L-glutamine, 1.5 g/L sodium bicarbonate, 4.5 g/L glucose, 10 mM HEPES, 1 mM sodium pyruvate, 10 Units/ml human insulin, […] (SVF): 15% (75 ml in 500 ml of medium).
# (§2) Cells were grown as subconfluent monolayer and cultured in 75 cm^2 flasks at 37° C., 5% CO2 in a humidified atmosphere, and medium was changed every two days. […]
# (§3) The cell proliferation WST-1 assay is a colorimetric assay for the quantification of cell proliferation and viability, based on the enzymatic cleavage of the tetrazolium salt WST-1 added to the culture medium, to a water soluble colored formazan dye, detected by absorbance at 450 nm, by mitochondrial succinate-tetrazolium reductase in viable cells. […]
# (§4) After an incubation period of 72 h, at day 4, were prepared the 19 ml medium with reagent WST-1 1 ml ([…]). […] The cells were incubated at 37° C. in a humidified atmosphere of 5% CO2 for 1 h 30 and the absorbance at 450-655 nm was measured by Microplate Manager 5.2 (Bio-Rad).
# CEM = test: WST-1 proliferation assay, CEM; details: Homo sapiens, CCRF-CEM; Acute lymphoblastic leukemia CEM; read-out: Anti-proliferative activity IC50 (μM) ± SD
# Description: as §1, §2, §3, §4
# VAL = test: WST-1 proliferation assay, VAL; details: Homo sapiens; B lymphoma VAL; read-out: Anti-proliferative activity IC50 (μM) ± SD
# Description: as §1, §2, §3, §4
# OPM-2 = test: WST-1 proliferation assay, OPM-2; details: Homo sapiens; Myeloma OPM-2; read-out: Anti-proliferative activity IC50 (μM) ± SD
# Description: as §1, §2, §3, §4
# ERY-1 = test: WST-1 proliferation assay, ERY-1; details: Homo sapiens; Erythroleukemia ERY-1; read-out: Anti-proliferative activity IC50 (μM) ± SD
# Description: as §1, §2, §3, §4
# HUVEC cells = test: Tube formation assay; details: HUVEC on collagen, IC50 concentration (FIGS. 1D, 3B)
# Description: Collagen type I (1 mg/ml, BD) was mixed with 0.1N NaOH, 0.1% bicarbonate and 10× in medium EBM-2 and kept on ice until placed into the wells. The assay was prepared in 96-well plate format and the bottom layer of collagen was formed by adding 70 μL of the solution per well and allowing subsequent gelation at 37° C. for 30 min. The HUVEC cells were then seeded on collagen at […] cells per well. After monolayer formation (one day), a second layer of collagen 200 μL per well was prepared according to the same protocol and gently placed on top of the cell layer. The compounds of the invention were added to the cells at the adhesion step (concentration corresponding to the Inhibitory Concentration 50 (IC50)). After 24 and 48 h of incubation at 37° C., tube formation was observed and pictures were taken.
# MDA-MB-438 = test: WST-1 proliferation assay, MDA-MB-438; details: Homo sapiens; MDA-MB-438, 0.05 μM
smiles,measurement,setting,value
"Cc1ccc(-c2nc3ccccc3[nH]2)cc1NC(=S)NC(=O)c1ccc2c(c1)OCCO2 [Compound 1, N-[5-(1H-benzimidazol-2-yl)-2-methylphenyl]-N′-(2,3-dihydro-1,4-benzodioxin-6-ylcarbonyl)thiourea]",IC50,A549,0.4 ± 0.04 µM
same,IC50,CEM,0.5 ± 0.01 µM
same,IC50,VAL,1.8 ± 0.04 µM
same,IC50,OPM-2,2.5 ± 0.09 µM
same,IC50,ERY-1,0.3 ± 0.04 µM
same,formation of new blood vessels (tube formation),HUVEC cells,inhibited the tube formation; also recorded: effectively inhibited
same,inhibition at 0.05 µM,MDA-MB-438,2%
"O=C(NC(=S)Nc1cccc(-c2nc3ccccc3[nH]2)c1)c1ccc2c(c1)OCCO2 [Compound 2, N-[3-(1H-benzimidazol-2-yl)phenyl]-N′-(2,3-dihydro-1,4-benzodioxin-6-ylcarbonyl)thiourea]",IC50,A549,0.1 ± 0.04 µM
same,IC50,CEM,0.3 ± 0.04 µM
same,IC50,VAL,1 µM
same,IC50,OPM-2,0.5 ± 0.01 µM
same,IC50,ERY-1,0.1 ± 0.05 µM
same,formation of new blood vessels (tube formation),HUVEC cells,inhibited the tube formation; also recorded: effectively inhibited
same,inhibition at 0.05 µM,MDA-MB-438,13%

# Source: patent US20130041005A1, “PHARMACEUTICAL COMPOSITIONS COMPRISING NEUROPILIN INHIBITORS, AND THEIR USE FOR THE PREVENTION AND/OR TREATMENT OF ANGIOGENIC DISORDERS AND CANCERS” (TRAGEX PHARMA, priority 2011, published 2013)
